Experimental findings from patent publication US8778964B2, “Hydroxy-substituted imidazo[1,2-a]-pyridinecarboxamides and their use” (Bayer Pharma Aktiengesellschaft, priority 2012, dated 2014) are described below.

Counter-ions that a name gives are not always drawn.

The experiment deals with recombinant guanylate cyclase reporter cell line. Kind of experiment: Action on recombinant guanylate cyclase reporter cell line (MEC). Type of experiment: cell-based. The settings on record: in some cases mean values obtained from individual determinations. As for the experimental part: B-2. Action on Recombinant Guanylate Cyclase Reporter Cell Line
The cellular action of the compounds according to the invention is determined on a recombinant guanylate cyclase reporter cell line, as described in F. Wunder et al., Anal. Biochem. 339, 104-112 (2005).
Representative values (MEC=minimal effective concentration) for the compounds according to the invention are shown in the following table (in some cases as mean values obtained from individual determinations): […]
Turning to `Cc1nc2c(OCc3c(F)cccc3F)cccn2c1C(=O)NC(C)C(O)C(F)(F)F` (single isomer, unassigned) [Example 144, 8-[(2,6-Difluorobenzyl)oxy]-2-methyl-N-(4,4,4-trifluoro-3-hydroxybutan-2-yl)imidazo[1,2-a]-pyridine-3-carboxamide], the minimal effective concentration is 0.3 µM.
As to `CCCC[C@H](CO)NC(=O)c1c(C)nc2c(OCc3c(F)cccc3F)cc(N3CCOCC3)cn12` [Example 63, 8-[(2,6-difluorobenzyl)oxy]-N-[(2R)-1-hydroxyhexan-2-yl]-2-methyl-6-(morpholin-4-yl)imidazo[1,2-a]pyridine-3-carboxamide], the minimal effective concentration worked out at 3 µM.
As for `CCCC[C@H](CO)NC(=O)c1c(C)nc2c(OCCC(C)C)cccn12` [Example 159, N-[(2R)-1-Hydroxyhexan-2-yl]-2-methyl-8-(3-methylbutoxy)imidazo[1,2-a]pyridine-3-carboxamide], the minimal effective concentration is 1 µM.
The result for `Cc1nc2c(OCc3c(F)cccc3F)cccn2c1C(=O)NC(CO)CC(F)(F)F` (racemic) [Example 113, rac-8-[(2,6-Difluorobenzyl)oxy]-2-methyl-N-(4,4,4-trifluoro-1-hydroxybutan-2-yl)imidazo[1,2-a]-pyridine-3-carboxamide] reads 0.03 µM.
The value for `CCc1nc2c(OCC3CCC3)cccn2c1C(=O)N[C@@H](C)CO` [Example 58, 8-(cyclobutylmethoxy)-2-ethyl-N-[(2S)-1-hydroxypropan-2-yl]imidazo[1,2-a]pyridine-3-carboxamide formic acid salt] was 3 µM; that for `Cc1nc2c(OCc3c(F)cccc3F)cccn2c1C(=O)NC(CCC(F)(F)F)C(C)(C)O` (racemic) [Example 149, rac-8-[(2,6-difluorobenzyl)oxy]-2-methyl-N-(6,6,6-trifluoro-2-hydroxy-2-methylhexan-3-yl)imidazo[1,2-a]pyridine-3-carboxamide] was 0.1 µM; that for `Cc1nc2c(OCC3CCCCC3)cccn2c1C(=O)NC1(CO)CCCC1` [Example 92, 8-(cyclohexylmethoxy)-N-[1-(hydroxymethyl)cyclopentyl]-2-methylimidazo[1,2-a]pyridine-3-carboxamide] was 1 µM.
The value for `CCCC[C@H](CO)NC(=O)c1cnc2c(OCc3c(F)cccc3F)cccn12` [Example 62, 8-[(2,6-difluorobenzyl)oxy]-N-[(2R)-1-hydroxyhexan-2-yl]imidazo[1,2-a]pyridine-3-carboxamide] was 0.3 µM.
Consider `COCC(O)CNC(=O)c1c(C)nc2c(OCC3CCCCC3)cccn12` (stereo not shown) [Example 79, 8-(cyclohexylmethoxy)-N-(2-hydroxy-3-methoxypropyl)-2-methylimidazo[1,2-a]pyridine-3-carboxamide], for which the minimal effective concentration amounted to 0.3 µM.
The result for `Cc1nc2c(OCc3c(F)cccc3F)cccn2c1C(=O)NC(c1ccc(Cl)cc1)C(C)(C)O` (racemic) [Example 151, rac-N-[1-(4-chlorophenyl)-2-hydroxy-2-methylpropyl]-8-[(2,6-difluorobenzyl)oxy]-2-methylimidazo[1,2-a]pyridine-3-carboxamide] reads 0.3 µM; that for `Cc1nc2c(OCc3c(F)cccc3F)cccn2c1C(=O)NC(CO)c1ccccn1` (racemic) [Example 119, rac-8-[(2,6-difluorobenzyl)oxy]-N-[2-hydroxy-1-(pyridin-2-yl)ethyl]-2-methylimidazo[1,2-a]-pyridine-3-carboxamide], 0.3 µM; that for `Cc1nc2c(OCc3c(F)cccc3F)cccn2c1C(=O)NC(CC(F)(F)F)C(C)(C)O` (racemic) [Example 148, rac-8-[(2,6-Difluorobenzyl)oxy]-2-methyl-N-(1,1,1-trifluoro-4-hydroxy-4-methylpentan-3-yl)-imidazo[1,2-a]pyridine-3-carboxamide], 0.03 µM.
Regarding `Cc1nc2c(OCc3c(F)cccc3F)cccn2c1C(=O)N[C@@H](CO)CCO` [Example 129, 8-[(2,6-difluorobenzyl)oxy]-N-[(2R)-1,4-dihydroxybutan-2-yl)-2-methylimidazo[1,2-a]pyridine-3-carboxamide], the minimal effective concentration was 3 µM.
As for `C[C@@H](CO)NC(=O)c1cnc2c(OCC3CCCCC3)cccn12` [Example 59, 8-(cyclohexylmethoxy)-N-[(2S)-1-hydroxypropan-2-yl]imidazo[1,2-a]pyridine-3-carboxamide], the minimal effective concentration came to 3 µM.
The result for `Cc1cccc(COc2cccn3c(C(=O)NC(CO)CO)c(C)nc23)c1Cl` [Example 52, 8-[(2-chloro-3-methylbenzyl)oxy]-N-(1,3-dihydroxypropan-2-yl)-2-methylimidazo[1,2-a]-pyridine-3-carboxamide] reads 10 µM.
The result for `Cc1nc2c(OCc3c(F)cccc3F)cccn2c1C(=O)N[C@@H]1CCC[C@@H]1O` [Example 37, 8-[(2,6-difluorobenzyl)oxy]-N-[(1R,2S)-2-hydroxycyclopentyl]-2-methylimidazo[1,2-a]-pyridine-3-carboxamide] reads 0.3 µM.
The result for `Cc1nc2c(OCc3c(F)cccc3F)cccn2c1C(=O)NCCCO` [Example 22, 8-[(2,6-difluorobenzyl)oxy]-N-(3-hydroxy-propyl)-2-methylimidazo[1,2-a]pyridine-3-carboxamide] reads 1 µM; that for `Cc1nc2c(OCc3c(F)cccc3F)cccn2c1C(=O)NCCCCO` [Example 23, 8-[(2,6-difluorobenzyl)oxy]-N-(4-hydroxybutyl)-2-methylimidazo[1,2-a]pyridine-3-carboxamide], 0.3 µM.
Take `Cc1cc(OCCC(C(F)(F)F)C(F)(F)F)c2nc(C)c(C(=O)NC(CCCC(F)(F)F)C(C)(C)O)n2c1` (racemic) [Example 170, rac-2,6-Dimethyl-N-(7,7,7-trifluoro-2-hydroxy-2-methylheptan-3-yl)-8-[4,4,4-trifluoro-3-(trifluoromethyl)butoxy]imidazo[1,2-a]pyridine-3-carboxamide]: the minimal effective concentration came out at 3 µM.
The result for `Cc1nc2c(OCc3c(F)cccc3F)cccn2c1C(=O)N[C@@H](CO)C(C)(C)O` [Example 165, 8-[(2,6-Difluorobenzyl)oxy]-N-[(2S)-1,3-dihydroxy-3-methylbutan-2-yl]-2-methylimidazo[1,2-a]-pyridine-3-carboxamide] reads 1 µM; that for `CCC[C@@H](CO)NC(=O)c1c(C)nc2c(OCC3CCCCC3)cccn12` [Example 89, 8-(cyclohexylmethoxy)-N-[(2S)-1-hydroxypentan-2-yl]-2-methylimidazo[1,2-a]pyridine-3-carboxamide], 1 µM.
The value for `Cc1nc2c(OCc3cccc(Cl)c3Cl)cccn2c1C(=O)NCCC1(O)CCCC1` [Example 47, 8-[(2,3-dichlorobenzyl)oxy]-N-[2-(1-hydroxycyclopentyl)ethyl]-2-methylimidazo[1,2-a]-pyridine-3-carboxamide] was 0.3 µM; that for `Cc1nc2c(OCc3c(F)cccc3F)cccn2c1C(=O)NCCC1(O)CCCC1` [Example 117, 8-[(2,6-difluorobenzyl)oxy]-N-[2-(1-hydroxycyclopentyl)ethyl]-2-methylimidazo[1,2-a]pyridine-3-carboxamide] was 0.03 µM.
In the case of `Cc1nc2c(OCC3CCCCC3)cccn2c1C(=O)NC[C@@H](O)CO` [Example 80, 8-(cyclohexylmethoxy)-N-[(2R)-2,3-dihydroxypropyl]-2-methylimidazo[1,2-a]pyridine-3-carboxamide], the minimal effective concentration came to 0.3 µM.
The result for `Cc1nc2c(OCc3c(F)cccc3F)cccn2c1C(=O)NC(CO)CC(F)(F)F` (racemic) [Example 100, rac-8-[(2,6-Difluorobenzyl)oxy]-2-methyl-N-(4,4,4-trifluoro-1-hydroxybutan-2-yl)imidazo[1,2-a]-pyridine-3-carboxamide trifluoroacetate] reads 0.03 µM.
The result for `C=CCC(CO)NC(=O)c1c(C)nc2c(OCC3CCCCC3)cccn12` (racemic) [Example 70, (rac)-8-(cyclohexylmethoxy)-N-(1-hydroxypent-4-en-2-yl)-2-methylimidazo[1,2-a]pyridine-3-carboxamide] reads 0.1 µM; that for `Cc1nc2c(OCc3c(F)cccc3F)cccn2c1C(=O)NCC(O)C(F)(F)F` (racemic) [Example 106, rac-8-[(2,6-difluorobenzyl)oxy]-2-methyl-N-(3,3,3-trifluoro-2-hydroxypropyl)imidazo[1,2-a]pyridine-3-carboxamide trifluoroacetate], 0.3 µM; that for `Cc1nc2c(OCc3c(F)cccc3F)cccn2c1C(=O)NCC(O)C(F)(F)F` (single isomer, unassigned; ent-8) [Example 109, ent-8-[(2,6-Difluorobenzyl)oxy]-2-methyl-N-(3,3,3-trifluoro-2-hydroxypropyl)imidazo[1,2-a]-pyridine-3-carboxamide], 0.1 µM.
The result for `Cc1nc2c(OCc3c(F)cccc3F)cccn2c1C(=O)N[C@@H](CO)CC(C)C` [Example 39, 8-[(2,6-Difluorobenzyl)oxy]-N-[(2R)-1-hydroxy-4-methylpentan-2-yl]-2-methylimidazo[1,2-a]-pyridine-3-carboxamide] reads 0.03 µM; that for `Cc1nc2c(OCC3CCCCC3)cccn2c1C(=O)NCCO` [Example 76, 8-(cyclohexylmethoxy)-N-(2-hydroxyethyl)-2-methylimidazo[1,2-a]pyridine-3-carboxamide formate], 0.3 µM; that for `Cc1nc2c(OCc3c(F)cccc3F)cccn2c1C(=O)NC1(CO)CCCC1` [Example 31, 8-[(2,6-difluorobenzyl)oxy]-N-[1-(hydroxymethyl)cyclopentyl]-2-methylimidazo[1,2-a]pyridine-3-carboxamide], 1 µM.

What is called minimal effective concentration is the lowest level tested that produced the effect sought.
